Records with an inconclusive call do not appear.
System: M. tuberculosis H37Rv growth inhibition, 7H9 media
Test: M. tuberculosis growth inhibition, HTS (AID 449762);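 note: bacterial growth assessed after seven days of incubation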
Settings: not given

SMILES | IC50
CCc1cc2c(=O)c(-c3cnn(-c4ccccc4)c3)c(C)oc2c(CN2CCCCC2)c1O | 2.58 µM
c1ccc(-c2nnc(-c3ccccn3)nn2)nc1 | 3.61 µM
COc1ccc(C2=CC(c3c(C)nn(-c4ccccc4)c3Cl)n3nnnc3N2)cc1OC (stereo unspecified) | 40.8 µM
Brc1ccc(-c2nc3ncccn3c2Nc2ccc3c(c2)OCCO3)o1 | 59.2 µM
CCCCCc1ccc(S(=O)(=O)NCCc2ccncc2)cc1 | 34.1 µM
Cc1nn(-c2ccccc2)nc1C(=O)c1c(C)[nH]n(-c2ccccc2)c1=O | 9.7 µM
COc1ccc(-c2nnc3sc(C4CCCCC4)nn23)cc1OC | 36.2 µM
c1ccc(-c2nc3nonc3nc2-c2ccccc2)cc1 | 33.5 µM
COc1cc2nc(Nc3ccc(C)c(Cl)c3)nc(N)c2cc1OC | 33.2 µM
O=C1CCc2ccc(OCCCCN3CCN(c4cccc(Cl)c4Cl)CC3)cc2N1 | 13.1 µM
O=C(c1ccc(-c2ccccc2)c(F)c1)C1CCCN(C(=O)c2cncs2)C1 (stereo unspecified) | 35.9 µM
CCCc1cc(NC(=O)CCl)n(-c2ccccc2)n1 | 0.7 µM
C#CCn1c(=NC(=O)c2cc(Cl)sc2Cl)sc2cc(S(N)(=O)=O)ccc21 | 3.37 µM
CCOC(=O)CSc1ncc(OC)c(Sc2ccc(OC)cc2)n1 | 7.53 µM
COc1ccc(OCCCC(=O)OC(C)C(=O)Nc2ccccc2[N+](=O)[O-])cc1 (stereo unspecified) | 15.4 µM
O=C(CSc1nc(Nc2ccccc2)nc(N2CCOCC2)n1)Nc1cc(Cl)ccc1O | 44 µM
COc1cccc(Nc2ccc([N+](=O)[O-])c3nonc23)c1 | 9.43 µM
O=[N+]([O-])c1ccc(S(=O)(=O)c2ccccc2)nc1 | 1.01 µM
CC1(C)c2[nH]c3ccccc3c2C[C@@H]2C(=O)N(Cc3ccccc3F)C(=O)N21 | 47.1 µM
CCOC(=O)c1ccc(N=Cc2c(O)c3ccccc3oc2=O)cc1 | 66 µM
O=C(CCl)N1CCCC1c1ccc2c(c1)OCCO2 (stereo unspecified) | 3.45 µM

SMILES | IC50
O=C(CSCc1ccc([N+](=O)[O-])cc1)N/N=C/c1ccncc1 | 3.47 µM
COc1cccc(C(=O)NC2CC3CCCC(C2)N3CC(=O)Nc2ccc(N(C)C)cc2)c1 (stereo unspecified) | 19.7 µM
Cc1cccc(N(C(=O)c2nsc(Cl)c2Cl)C(C(=O)NC2CCCC2)c2ccc(O)cc2)c1C (stereo unspecified) | 21.7 µM
Cc1cccc(N2CCN(CCCNC(=O)c3ccc(NC(=O)C4=CSCCO4)cc3)CC2C)c1 (stereo unspecified) | 19.7 µM
C/C(=N/Nc1ccnc2cc(Cl)ccc12)c1ccc(O)cc1 | 23.7 µM
O=[N+]([O-])c1ccc(C2CC(c3ccccc3)=Nc3ccccc3S2)cc1 (stereo unspecified) | 5.11 µM
Cc1cc(Cl)ccc1OCCCC(=O)NO | 17.6 µM
O=C(CSc1nnc(-c2cccs2)o1)NCC1CN(Cc2ccccc2)CCO1 (stereo unspecified) | 5.22 µM
COc1ccc(OC)c(Nc2nc(-c3sc(C)nc3C)cs2)c1 | 51.7 µM
O=[N+]([O-])c1ccc(C2Oc3ccccc3C3CC(c4ccccc4)=NN32)s1 (stereo unspecified) | 6.12 µM
Cc1noc2ncnc(Sc3ccc(Cl)cc3)c12 | 82.9 µM
COC(=O)[C@@H](NC(=O)c1cc(COc2cncc(Cl)c2)on1)c1ccccc1 | 1.19 µM
CN(C)c1ccc(O)c2c1CC1CC3[C@@H](N(C)C)C(=O)C(C(N)=O)C(=O)[C@]3(O)C(=O)C1C2=O (stereo partly specified) | 1.27 µM
COCCCn1c(SCc2cccc(OC)c2)nc2cc(OC)c(OC)cc2c1=N | 37 µM
CCc1nnc(NC(=O)CN2CCN(c3nc(-c4ccccc4)cs3)CC2)s1 | 45.8 µM
Cc1ccc2nc3c(cc(C(=O)NCc4ccco4)c(=N)n3Cc3ccco3)c(=O)n2c1 | 31.9 µM
O=C1C2C(c3ccccc3)(C(=O)N1c1ccc(Cl)cc1)C2(c1ccccc1)c1ccccc1 (stereo unspecified) | 11.5 µM
COC(=O)c1ccc(Cn2cc(C(F)(F)F)cc([N+](=O)[O-])c2=O)cc1 | < 0.2 µM
CC1(c2cc([N+](=O)[O-])cc([N+](=O)[O-])c2)CC(C)(C)N(C(=O)c2ccccc2)c2ccccc21 (stereo unspecified) | 12.1 µM
COc1ccc(Cc2nnc(SCC(=O)N(c3ccccc3)C(C)C)n(N)c2=O)cc1 | 40.9 µM
N=c1n(Cc2ccc(Cl)cc2)c2ccccc2n1CC(O)COc1ccccc1 (stereo unspecified) | 17.5 µM

Same assay, conditions: measured here: IC90 growth inhibition

SMILES | IC90
CCc1cc2c(=O)c(-c3cnn(-c4ccccc4)c3)c(C)oc2c(CN2CCCCC2)c1O | 21.7 µM
c1ccc(-c2nnc(-c3ccccn3)nn2)nc1 | 6.27 µM
COc1ccc(C2=CC(c3c(C)nn(-c4ccccc4)c3Cl)n3nnnc3N2)cc1OC (stereo unspecified) | 78.9 µM
Brc1ccc(-c2nc3ncccn3c2Nc2ccc3c(c2)OCCO3)o1 | 90.2 µM
CCCCCc1ccc(S(=O)(=O)NCCc2ccncc2)cc1 | 42.8 µM
Cc1nn(-c2ccccc2)nc1C(=O)c1c(C)[nH]n(-c2ccccc2)c1=O | 18.7 µM
COc1ccc(-c2nnc3sc(C4CCCCC4)nn23)cc1OC | 55.3 µM
c1ccc(-c2nc3nonc3nc2-c2ccccc2)cc1 | 43.9 µM
O=C(N/N=C/c1cn(-c2ccccc2)nc1-c1cccs1)c1ccc(Cl)cc1 | > 100 µM
COc1cc2nc(Nc3ccc(C)c(Cl)c3)nc(N)c2cc1OC | 98.8 µM
O=C1CCc2ccc(OCCCCN3CCN(c4cccc(Cl)c4Cl)CC3)cc2N1 | > 100 µM
O=C(c1ccc(-c2ccccc2)c(F)c1)C1CCCN(C(=O)c2cncs2)C1 (stereo unspecified) | 46.8 µM
CCCc1cc(NC(=O)CCl)n(-c2ccccc2)n1 | 2.29 µM
C#CCn1c(=NC(=O)c2cc(Cl)sc2Cl)sc2cc(S(N)(=O)=O)ccc21 | > 100 µM
CCOC(=O)CSc1ncc(OC)c(Sc2ccc(OC)cc2)n1 | 73.4 µM
COc1ccc(OCCCC(=O)OC(C)C(=O)Nc2ccccc2[N+](=O)[O-])cc1 (stereo unspecified) | > 100 µM
O=C(CSc1nc(Nc2ccccc2)nc(N2CCOCC2)n1)Nc1cc(Cl)ccc1O | > 50 µM
COc1cccc(Nc2ccc([N+](=O)[O-])c3nonc23)c1 | 13.6 µM
O=[N+]([O-])c1ccc(S(=O)(=O)c2ccccc2)nc1 | 2.08 µM
CC1(C)c2[nH]c3ccccc3c2C[C@@H]2C(=O)N(Cc3ccccc3F)C(=O)N21 | > 100 µM
CCOC(=O)c1ccc(N=Cc2c(O)c3ccccc3oc2=O)cc1 | > 100 µM
O=C(CCl)N1CCCC1c1ccc2c(c1)OCCO2 (stereo unspecified) | 9.07 µM

SMILES | IC90
O=C(CSCc1ccc([N+](=O)[O-])cc1)N/N=C/c1ccncc1 | 10.3 µM
COc1cccc(C(=O)NC2CC3CCCC(C2)N3CC(=O)Nc2ccc(N(C)C)cc2)c1 (stereo unspecified) | 24.8 µM
Cc1cccc(N(C(=O)c2nsc(Cl)c2Cl)C(C(=O)NC2CCCC2)c2ccc(O)cc2)c1C (stereo unspecified) | 28.2 µM
Cc1cccc(N2CCN(CCCNC(=O)c3ccc(NC(=O)C4=CSCCO4)cc3)CC2C)c1 (stereo unspecified) | 29.2 µM
C/C(=N/Nc1ccnc2cc(Cl)ccc12)c1ccc(O)cc1 | 27.2 µM
O=[N+]([O-])c1ccc(C2CC(c3ccccc3)=Nc3ccccc3S2)cc1 (stereo unspecified) | 6.66 µM
Cc1cc(Cl)ccc1OCCCC(=O)NO | > 100 µM
O=C(CSc1nnc(-c2cccs2)o1)NCC1CN(Cc2ccccc2)CCO1 (stereo unspecified) | 15.2 µM
COc1ccc(OC)c(Nc2nc(-c3sc(C)nc3C)cs2)c1 | > 100 µM
O=[N+]([O-])c1ccc(C2Oc3ccccc3C3CC(c4ccccc4)=NN32)s1 (stereo unspecified) | 6.95 µM
Cc1noc2ncnc(Sc3ccc(Cl)cc3)c12 | > 100 µM
COC(=O)[C@@H](NC(=O)c1cc(COc2cncc(Cl)c2)on1)c1ccccc1 | 3.97 µM
Cn1nnc(NC(=S)NC(=O)c2ccc(-c3ccc(Br)cc3)o2)n1 | > 100 µM
CN(C)c1ccc(O)c2c1CC1CC3[C@@H](N(C)C)C(=O)C(C(N)=O)C(=O)[C@]3(O)C(=O)C1C2=O (stereo partly specified) | 3.62 µM
COCCCn1c(SCc2cccc(OC)c2)nc2cc(OC)c(OC)cc2c1=N | 49 µM
CCc1nnc(NC(=O)CN2CCN(c3nc(-c4ccccc4)cs3)CC2)s1 | 52.4 µM
Cc1ccc2nc3c(cc(C(=O)NCc4ccco4)c(=N)n3Cc3ccco3)c(=O)n2c1 | > 100 µM
O=C1C2C(c3ccccc3)(C(=O)N1c1ccc(Cl)cc1)C2(c1ccccc1)c1ccccc1 (stereo unspecified) | 12.4 µM
COC(=O)c1ccc(Cn2cc(C(F)(F)F)cc([N+](=O)[O-])c2=O)cc1 | 23.7 µM
CC1(c2cc([N+](=O)[O-])cc([N+](=O)[O-])c2)CC(C)(C)N(C(=O)c2ccccc2)c2ccccc21 (stereo unspecified) | 19.4 µM
COc1ccc(Cc2nnc(SCC(=O)N(c3ccccc3)C(C)C)n(N)c2=O)cc1 | 74.4 µM
N=c1n(Cc2ccc(Cl)cc2)c2ccccc2n1CC(O)COc1ccccc1 (stereo unspecified) | 25.5 µM
